This passage reports IC50 results from patent publication US20240059703A1 (AMGEN INC., priority 2021, published 2024).

Molecules are shown by their SMILES.

KRAS G12C, sequence (P01116 other isoform, or with tags, fused parts or gaps G12C/C118A): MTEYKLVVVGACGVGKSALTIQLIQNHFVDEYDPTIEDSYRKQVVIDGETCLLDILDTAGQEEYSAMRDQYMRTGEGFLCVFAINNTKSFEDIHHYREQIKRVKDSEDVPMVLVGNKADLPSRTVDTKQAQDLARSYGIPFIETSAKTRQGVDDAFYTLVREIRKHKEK

One test concerns the target KRAS G12C (Homo sapiens (Human), UniProt P01116, C118A/G12C). Description: 2 h coupled exchange assay. Conditions: Avg 2 h Coupled exchange IC50, 2 h compound pre-incubation. The class given is biochemical. As to the method:
The term “2 h coupled exchange assay” or “20 h coupled exchange assay” as used herein refers to the assay described in the Section entitled “BIOLOGICAL EVALUATION.”
Regarding `C=CC(=O)N1CC2(CCN(c3nc4c(c(-c5cccc6cn[nH]c56)c3C#N)C[C@H]3C[C@@H]4C3(C)C)C2)C1` (single isomer, unassigned) [Example 14-28], inhibition was half-maximal at 0.886 µM (IC50).
Still for that read-out and setting: the result for `C=CC(=O)N1CC2(CCN(c3nc4c(c(-c5cc(O)ccc5C)c3C)COC(C)(C)C4)C2)C1` (single isomer, unassigned) [Example 14-32, (P)-1-(6-(4-(5-hydroxy-2-methylphenyl)-3,7,7-trimethyl-7,8-dihydro-5H-pyrano[4,3-b]pyridin-2-yl)-2,6-diazaspiro[3.4]octan-2-yl)-2-propen-1-one] reads 3.04 µM.
Take `C=CC(=O)N1CC2(CCN(c3nc4c(c(-c5c(C)ccc6[nH]ncc56)c3C)COC(C)(C)C4)C2)C1` (single isomer, unassigned) [Example 14-34, (M)-1-(6-(3,7,7-trimethyl-4-(5-methyl-1H-indazol-4-yl)-7,8-dihydro-5H-pyrano[4,3-b]pyridin-2-yl)-2,6-diazaspiro[3.4]octan-2-yl)-2-propen-1-one]: the IC50 amounted to 7.59 µM.
The compound `C=CC(=O)N1CC2(CCN(c3nc4c(c(-c5cc(O)cc6ccccc56)c3C)COC(C)(C)C4)C2)C1` (single isomer, unassigned) [Example 14-35, (P)-1-(6-(4-(3-hydroxy-1-naphthalenyl)-3,7,7-trimethyl-7,8-dihydro-5H-pyrano[4,3-b]pyridin-2-yl)-2,6-diazaspiro[3.4]octan-2-yl)-2-propen-1-one] gave an IC50 of 5.62 µM. This IC50 and that of the compound before are within 1.5-fold of each other.
For `C=CC(=O)N1CC2(CCN(c3nc4c(c(-c5ccc(F)c6sc(N)nc56)c3C)COC(C)(C)C4)C2)C1` (single isomer, unassigned) [Example 14-39, (M)-1-(6-(4-(2-amino-7-fluoro-1,3-benzothiazol-4-yl)-3,7,7-trimethyl-7,8-dihydro-5H-pyrano[4,3-b]pyridin-2-yl)-2,6-diazaspiro[3.4]octan-2-yl)-2-propen-1-one], the IC50 was found to be 1.77 µM.
For the compound `C=CC(=O)N1CC2(CCN(c3nc4c(c(-c5c(C)c(C)cc6cnn(C)c56)c3C)COC(C)(C)C4)C2)C1` (single isomer, unassigned) [Example 14-42, (M)-1-(6-(3,7,7-trimethyl-4-(1,5,6-trimethyl-1H-indazol-7-yl)-7,8-dihydro-5H-pyrano[4,3-b]pyridin-2-yl)-2,6-diazaspiro[3.4]octan-2-yl)-2-propen-1-one], the IC50 is 7.81 µM.
`C=CC(=O)N1CC2(CCN(c3nc4c(c(-c5cccc6cc(O)ccc56)c3C)COC(C)(C)C4)C2)C1` (single isomer, unassigned) [Example 14-45, (M)-1-(6-(4-(6-hydroxy-1-naphthalenyl)-3,7,7-trimethyl-7,8-dihydro-5H-pyrano[4,3-b]pyridin-2-yl)-2,6-diazaspiro[3.4]octan-2-yl)-2-propen-1-one] gave a half-maximal inhibitory concentration (IC50) of 7.48 µM.
Consider `C=CC(=O)N1CC2(CCN(c3nc4c(c(-c5c(C)ccc6cn[nH]c56)c3C#N)C[C@H]3C[C@@H]4C3(C)C)C2)C1` (single isomer, unassigned) [Example 14-52], for which the 50% inhibitory concentration (IC50) came out at 1.02 µM.
Same read-out and setting: the result for `C=CC(=O)N1CC2(CCN(c3nc4c(c(-c5ccc(F)c6sc(N)nc56)c3C#N)COC(C)(C)C4)C2)C1` (single isomer, unassigned) [Example 14-58, (M)-4-(2-amino-7-fluoro-1,3-benzothiazol-4-yl)-7,7-dimethyl-2-(2-(2-propenoyl)-2,6-diazaspiro[3.4]octan-6-yl)-7,8-dihydro-5H-pyrano[4,3-b]pyridine-3-carbonitrile] reads 0.357 µM.
On the same count and under the same terms, as for `C=CC(=O)N1CC2(CCN(c3nc4c(c(-c5cc(O)ccc5C)c3F)C[C@H]3C[C@@H]4C3(C)C)C2)C1` (single isomer, unassigned) [Example 14-60], the figure is 3.35 µM; as for `C=CC(=O)N1CC2(CCN(c3nc4c(c(-c5cc(O)ccc5C)c3F)COC(C)(C)C4)C2)C1` (single isomer, unassigned) [Example 14-61, (M)-1-(6-(3-fluoro-4-(5-hydroxy-2-methylphenyl)-7,7-dimethyl-7,8-dihydro-5H-pyrano[4,3-b]pyridin-2-yl)-2,6-diazaspiro[3.4]octan-2-yl)-2-propen-1-one], 76.8 µM; as for `C=CC(=O)N1CC2(CCN(c3nc4c(c(-c5cc(O)ccc5C)c3F)COC(C)(C)C4)C2)C1` (single isomer, unassigned) [Example 14-62, (P)-1-(6-(3-fluoro-4-(5-hydroxy-2-methylphenyl)-7,7-dimethyl-7,8-dihydro-5H-pyrano[4,3-b]pyridin-2-yl)-2,6-diazaspiro[3.4]octan-2-yl)-2-propen-1-one], 0.696 µM.
On the same count and under the same terms, the result for `C=CC(=O)N1CC2(CCN(c3nc4c(c(-c5c(C)ccc6cnn(C)c56)c3F)C[C@H]3C[C@@H]4C3(C)C)C2)C1` (single isomer, unassigned) [Example 14-63] reads 0.364 µM; that for `C=CC(=O)N1CC2(CCN(c3nc4c(c(-c5c(C)ccc6cnn(C)c56)c3F)C[C@H]3C[C@@H]4C3(C)C)C2)C1` (single isomer, unassigned) [Example 14-64], 11.8 µM.
The compound `C=CC(=O)N1CC2(CCN(c3nc4c(c(-c5cccc6cc(O)ccc56)c3F)COC(C)(C)C4)C2)C1` (single isomer, unassigned) [Example 14-66, (P)-1-(6-(3-fluoro-4-(6-hydroxy-1-naphthalenyl)-7,7-dimethyl-7,8-dihydro-5H-pyrano[4,3-b]pyridin-2-yl)-2,6-diazaspiro[3.4]octan-2-yl)-2-propen-1-one] came in with a half-inhibitory concentration (IC50) of 33.5 µM. Compared with the last compound, the IC50 is about 2.8-fold higher.
Compound `C=CC(=O)N1CC2(CCN(c3nc4c(c(-c5cccc6cc(O)ccc56)c3F)COC(C)(C)C4)C2)C1` (single isomer, unassigned) [Example 14-67, (M)-1-(6-(3-fluoro-4-(6-hydroxy-1-naphthalenyl)-7,7-dimethyl-7,8-dihydro-5H-pyrano[4,3-b]pyridin-2-yl)-2,6-diazaspiro[3.4]octan-2-yl)-2-propen-1-one] showed an IC50 of 0.64 µM.
In turn, `C=CC(=O)N1CC2(CCN(c3nc4c(c(-c5cc(O)cc6ccccc56)c3F)COC(C)(C)C4)C2)C1` (single isomer, unassigned) [Example 14-69, (M)-1-(6-(3-fluoro-4-(3-hydroxy-1-naphthalenyl)-7,7-dimethyl-7,8-dihydro-5H-pyrano[4,3-b]pyridin-2-yl)-2,6-diazaspiro[3.4]octan-2-yl)-2-propen-1-one] had an IC50 of 17 µM.
On the same count and under the same terms, as for `C=CC(=O)N1CC2(CCN(c3nc4c(c(-c5c(C)ccc6[nH]ncc56)c3F)C[C@H]3C[C@@H]4C3(C)C)C2)C1` (single isomer, unassigned) [Example 14-74], the figure is 1.56 µM; as for `C=CC(=O)N1CC2(CCN(c3nc4c(c(-c5c(C)ccc6cnn(C)c56)c3F)C[C@H]3C[C@@H]4C3(C)C)C2)C1` (single isomer, unassigned) [Example 14-75], 0.726 µM; as for `C=CC(=O)N1CC2(CCN(c3nc4c(c(-c5c(C)c(Cl)cc6cnn(C)c56)c3F)COC(C)(C)C4)C2)C1` (single isomer, unassigned) [Example 14-78, (M)-1-(6-(4-(5-chloro-1,6-dimethyl-1H-indazol-7-yl)-3-fluoro-7,7-dimethyl-7,8-dihydro-5H-pyrano[4,3-b]pyridin-2-yl)-2,6-diazaspiro[3.4]octan-2-yl)-2-propen-1-one], 0.023 µM.
The same measure, in the same setting: as for `C=CC(=O)N1CC2(CCN(c3nc4c(c(-c5c(C)c(Cl)cc6cnn(C)c56)c3F)COC(C)(C)C4)C2)C1` (single isomer, unassigned) [Example 14-79, (P)-1-(6-(4-(5-chloro-1,6-dimethyl-1H-indazol-7-yl)-3-fluoro-7,7-dimethyl-7,8-dihydro-5H-pyrano[4,3-b]pyridin-2-yl)-2,6-diazaspiro[3.4]octan-2-yl)-2-propen-1-one], the figure is 9.6 µM; as for `C=CC(=O)N1CC2(CCN(c3nc4c(c(-c5c(C)ccc6cn[nH]c56)c3C#N)COC(C)(C)C4)C2)C1` (single isomer, unassigned) [Example 14-82, (M)-7,7-dimethyl-4-(6-methyl-1H-indazol-7-yl)-2-(2-(2-propenoyl)-2,6-diazaspiro[3.4]octan-6-yl)-7,8-dihydro-5H-pyrano[4,3-b]pyridine-3-carbonitrile], 5.76 µM.
The same measure, in the same setting: the result for `C=CC(=O)N1CC2(CCN(c3nc4c(c(-c5c(C)c(Cl)cc6cnn(C)c56)c3C)COC(C)(C)C4)C2)C1` (single isomer, unassigned) [Example 14-88, (M)-1-(6-(4-(5-chloro-1,6-dimethyl-1H-indazol-7-yl)-3,7,7-trimethyl-7,8-dihydro-5H-pyrano[4,3-b]pyridin-2-yl)-2,6-diazaspiro[3.4]octan-2-yl)-2-propen-1-one] reads 10.4 µM; that for `C=CC(=O)N1CC2(CCN(c3nc4c(c(-c5c(C)ccc6cnn(C)c56)c3C)COC(C)(C)C4)C2)C1` (single isomer, unassigned) [Example 14-100, (M)-1-(6-(4-(1,6-dimethyl-1H-indazol-7-yl)-3,7,7-trimethyl-7,8-dihydro-5H-pyrano[4,3-b]pyridin-2-yl)-2,6-diazaspiro[3.4]octan-2-yl)-2-propen-1-one], 0.602 µM.
For `C=CC(=O)N1CC2(CCN(c3nc4c(c(-c5c(C)ccc6cnn(C)c56)c3F)COC(C)(C)C4)C2)C1` (single isomer, unassigned) [Example 14-101, (M)-1-(6-(4-(1,6-dimethyl-1H-indazol-7-yl)-3-fluoro-7,7-dimethyl-7,8-dihydro-5H-pyrano[4,3-b]pyridin-2-yl)-2,6-diazaspiro[3.4]octan-2-yl)-2-propen-1-one], the IC50 was found to be 0.301 µM. This IC50 is about 2-fold lower than that of the compound before.

Staying with this test, now noted: Avg 2 h Coupled exchange IC50, 2 h compound pre-incubation, SOS-mediated nucleotide exchange.
`C=CC(=O)N1CC2(CCN(c3nc4c(c(-c5cc(O)ccc5C)c3C#N)[C@H]3CC[C@@H]4C3)C2)C1` (single isomer, unassigned) [Example 14-14] displayed a 50% inhibitory concentration (IC50) of 0.108 µM.
`C=CC(=O)N1CC2(CCN(c3nc4c(c(-c5c(C)ccc6cnn(C)c56)c3C#N)[C@@H]3CC[C@H]4C3)C2)C1` (single isomer, unassigned) [Example 14-16]: the 50% inhibitory concentration (IC50) came to 250 µM.

What is called IC50 is the concentration that gives 50% inhibition.
